Experimental data as given in US11440903B2, “Salt form and crystal form of compound as FGFR4 inhibitor and preparation method thereof” (GUANGDONG ZHONGSHENG PHARMACEUTICAL CO., LTD, priority 2017, dated 2022).

Tests used:
[1] = Solid stability test of the crystal forms (influence factors and acceleration tests; appearance, XRPD, HPLC content and impurities); assay type: physicochemical
Source text: A sample of the crystal form A was placed on the bottom of a glass sample bottle, and spread to a thin layer. The sample stored under high temperature, high humidity, and acceleration conditions was placed in a bottle of which the mouth was packed with a pierced aluminum foil to ensure the sample to be sufficiently exposed to ambient air; the sample stored under light radiation conditions was placed at room temperature in a standing bottle of which the mouth was open, the sample was exposed to a light resource, and sampled for detection after being radiated by sufficient energy. Samples were taken and analyzed at various time points, and the test results were compared with the initial test results of 0 day, the inspection items included appearance, content and impurities, and the test results are shown in Table 9.
A sample of the crystal form B (10 mg) was placed on the bottom of a glass sample bottle, and spread to a thin layer. The sample stored under high temperature, high humidity, and acceleration conditions were placed in a bottle of which the mouth was packed with a pierced aluminum foil to ensure the sample to be sufficiently exposed to ambient air; the sample stored under light radiation conditions was placed at room temperature in a standing bottle of which the mouth was open, the sample was exposed to a light resource, and sampled for detection after being radiated by sufficient energy, the control sample stored in dark (open, the whole sample bottle was sealed with aluminum foil to keep the content in dark) and the sample stored under light radiation conditions were placed together to exclude environmental influence on the samples. Samples were taken and analyzed at various time points, and the test results were compared with the initial test results of 0 day, the inspection items included appearance, crystal form, content and impurities, the test results are shown in Table 10.
(§1) A sample of the crystal form C was taken and placed on the bottom of a glass sample bottle, and spread to a thin layer. The sample stored under high temperature, high humidity, and acceleration conditions was placed in a bottle of which the mouth was packed with a pierced aluminum foil to ensure the sample to be sufficiently exposed to ambient air; the sample stored under light radiation conditions was placed at room temperature in a standing bottle of which the mouth was open, the sample was exposed to a light resource, and sampled for detection after being radiated by sufficient energy. Samples were taken and analyzed at various time points, and the test results were compared with the initial test results of 0 day.
as §1, with “D” for “C”
A sample of the crystal form E (10 mg) was taken and placed on the bottom of a glass sample bottle, and spread to a thin layer. […]

[2] = Stability of the crystal form on stirring as suspension in solvent (40° C., 2 days); assay type: physicochemical
Experimental: 30 mg of the compound represented by formula (I) was weighed and added into a glass flask, 400 μL acetonitrile-water (1:1) was added to form a suspension. A sample of the suspension was placed on a magnetic stirrer (40° C.) for a dark stirring experiment. The sample of the suspension was centrifuged after stirring at 40° C. for 2 days, and then the residual sample was dried in a vacuum drying oven (30° C.) overnight to give a crystal form A of the compound represented by formula (I). The XRPD pattern of the crystal form A of the compound represented by formula (I) is shown in FIG. 1, the DSC pattern is shown in FIG. 2, and the TGA pattern is shown in FIG. 3.
30 mg of the compound represented by formula (I) was weighed and added into a glass flask, and 400 μL ethyl acetate was added to form a suspension. A sample of the suspension was placed on a magnetic stirrer (40° C.) for dark stirring experiment. The sample of the suspension was centrifuged after stirring at 40° C. for 2 days, and then the residual sample was dried in a vacuum drying oven (30° C.) overnight. The crystal form was detected by XRPD to give a crystal form A of the compound represented by formula (I).
30 mg of the compound represented by formula (I) was weighed and added into a glass flask, and 400 μL methanol was added to form a suspension. A sample of the suspension was placed on a magnetic stirrer (40° C.) for dark stirring experiment. The sample of the suspension was centrifuged after stirring at 40° C. for 2 days, and then the residual sample was dried in a vacuum drying oven (30° C.) overnight to give a crystal form B of the compound represented by formula (I). The XRPD pattern of the crystal form B of the compound represented by formula (I) is shown in FIG. 4, the DSC pattern is shown in FIG. 5, and the TGA pattern is shown in FIG. 6.
50 mg of the compound represented by formula (I) was weighed and added into a 1.5 mL liquid vial, and 200 μL methanol was added thereto, the obtained mixture was homogeneously mixed under ultrasound. The dissolved sample was quickly centrifuged, and the supernatant was placed in a centrifuge tube, the mouth of the tube was packed with a pierced aluminum foil, and then the tube was placed in a fume cupboard for volatilization; the sample of the suspension was placed on a magnetic stirring heater (40° C.) for stirring (in dark), and quickly centrifuged after 2 days. The resultant solid was collected and dried at 30° C. in a vacuum drying oven overnight to give the crystal form C of the compound represented by formula (I). The XRPD pattern of the crystal form C of the compound represented by formula (I) is shown in FIG. 7, the DSC pattern is shown in FIG. 8, and the TGA pattern is shown in FIG. 9.
50 mg of the compound represented by formula (I) was weighed and added into a 1.5 mL liquid vial, and 200 μL ethanol was added thereto, and the obtained mixture was homogeneously mixed under ultrasound. The dissolved sample was quickly centrifuged, the supernatant was placed into a centrifuge tube, and the mouth of the tube was packed with a pierced aluminum foil, and placed in a fume cupboard for volatilization; the sample of the suspension was placed on a magnetic stirring heater (40° C.) for stirring (in dark), and quickly centrifuged after 2 days. The solid obtained as above was collected and dried at 30° C. in a vacuum drying oven overnight to give a crystal form D of the compound represented by formula (I). The XRPD pattern of the crystal form D of the compound represented by formula (I) is shown in FIG. 10, the DSC pattern is shown in FIG. 11, and the TGA pattern is shown in FIG. 12.
35 mg of the compound represented by formula (II) was weighed and added into a 1.5 mL liquid vial, and 400 μL methanol was added thereto, and the obtained mixture was homogeneously mixed under ultrasound. […]

[3] = Acceleration test (40° C./relative humidity of 75%, open), 5 days
[4] = Acceleration test (40° C./relative humidity of 75%, open), 10 days
[5] = High humidity (room temperature/relative humidity of 92.5%, open), 5 days
[6] = High humidity (room temperature/relative humidity of 92.5%, open), 10 days
[7] = High temperature (60° C., open), 5 days
[8] = High temperature (60° C., open), 10 days
[9] = Light radiation (total illumination: 1.2 × 10^6 Lux·hr), 5 days
[10] = Light radiation (total illumination: 1.2 × 10^6 Lux·hr), 10 days
[11] = conclusion of influence factors and acceleration tests

Row | Appearance ([1]; 0 day (initial)) | Content (%) ([1]; 0 day (initial)) | Total Impurities (%) ([1]; 0 day (initial)) | Appearance [1, 3] | Appearance [1, 4] | Content (%) [1, 4] | Total Impurities (%) [1, 4] | Appearance [1, 5] | Appearance [1, 6] | Content (%) [1, 6] | Total Impurities (%) [1, 6] | Appearance [1, 7] | Appearance [1, 8] | Content (%) [1, 8] | Total Impurities (%) [1, 8] | Appearance [1, 9] | Appearance [1, 10] | Content (%) [1, 10] | Total Impurities (%) [1, 10] | stability under acceleration conditions, conclusion in words [1, 11] | SMILES | also measured
1 | Off-white | 98.96% | 1.25% | Off-white | Off-white | 98.96% | 1.26% | Off-white | Off-white | 98.22% | 2.08% | Off-white | Off-white | 98.93% | 1.27% | Off-white | Off-white | 98.35% | 1.86% | good | C=CC(=O)N[C@H]1COC[C@H]1Nc1ncc(/C=C(\F)c2c(Cl)c(OC)cc(OC)c2Cl)cn1 [Crystal Form C] | Crystal Form (XRPD) ([1]; 0 day (initial)): form C; Crystal Form (XRPD) [1, 4]: form C; Crystal Form (XRPD) [1, 6]: form C; Crystal Form (XRPD) [1, 8]: form C; Crystal Form (XRPD) [1, 10]: form C; thermal stability (high temperature), conclusion in words [1, 11]: good; stability in the methanol solution ([2]; stirring in methanol at 40° C. for 2 days): substantially high stability
2 | Off-white | 99.33% | 0.90% | Off-white | Off-white | 99.38% | 0.96% | Off-white | Off-white | 99.36% | 0.89% | Off-white | Off-white | 99.32% | 0.94% | Off-white | Off-white | 99.41% | 0.86% | good | C=CC(=O)N[C@H]1COC[C@H]1Nc1ncc(/C=C(\F)c2c(Cl)c(OC)cc(OC)c2Cl)cn1 [Crystal Form D] | photostability (stability under light radiation), conclusion in words [1, 11]: good; stability under high humidity conditions, conclusion in words [1, 11]: good; thermal stability (high temperature), conclusion in words [1, 11]: good; stability in the ethanol solution ([2]; stirring in ethanol at 40° C. for 2 days): substantially high stability
